We go through eleven compounds from ChEMBL document CHEMBL4364328, “Inhibition of ACSS2 for Treatment of Cancer and Neuropsychiatric Diseases” (ACS Med Chem Lett, 2019).

Each structure is given as a SMILES string.

Sequence of Acetyl-coenzyme A synthetase, cytoplasmic (Q9NR19 whole entry): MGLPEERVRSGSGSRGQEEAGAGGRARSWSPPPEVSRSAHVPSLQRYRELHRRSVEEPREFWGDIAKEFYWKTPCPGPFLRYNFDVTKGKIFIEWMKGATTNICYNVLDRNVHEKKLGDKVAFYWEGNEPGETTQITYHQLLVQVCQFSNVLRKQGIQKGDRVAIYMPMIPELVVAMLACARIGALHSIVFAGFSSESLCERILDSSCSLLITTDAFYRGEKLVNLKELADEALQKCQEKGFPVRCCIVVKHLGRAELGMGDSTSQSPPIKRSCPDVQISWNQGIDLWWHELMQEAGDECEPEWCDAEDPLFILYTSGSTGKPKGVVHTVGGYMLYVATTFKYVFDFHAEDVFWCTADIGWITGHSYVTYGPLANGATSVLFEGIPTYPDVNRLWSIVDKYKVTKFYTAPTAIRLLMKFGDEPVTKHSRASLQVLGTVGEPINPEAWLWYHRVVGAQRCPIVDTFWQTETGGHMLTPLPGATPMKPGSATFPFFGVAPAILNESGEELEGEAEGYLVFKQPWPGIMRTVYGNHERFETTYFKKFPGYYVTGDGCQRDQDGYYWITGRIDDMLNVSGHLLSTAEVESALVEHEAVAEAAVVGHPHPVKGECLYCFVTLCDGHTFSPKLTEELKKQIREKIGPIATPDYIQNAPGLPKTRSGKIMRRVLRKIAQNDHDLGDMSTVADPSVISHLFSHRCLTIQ

The assay addresses Acetyl-coenzyme A synthetase, cytoplasmic (Homo sapiens, UniProt Q9NR19). Briefly: Inhibition of ACSS2 in human MDA-MB-468 cells assessed as 13C-acetate incorporation incubated for 5 hrs measured under hypoxic conditions by LCMS analysis. The class given is cell-based.
On to `COc1ccc(N2N=C(C)C(C(=O)Nc3cccc(C(C)(F)F)c3)C2=O)cn1` (stereo unspecified), for which the IC50 came to 5 nM.

Regarding `CC1=NN(c2ccccc2)C(=O)C1C(=O)Nc1cccc(C(C)(F)F)c1` (stereo unspecified), the IC50 was determined as 4 nM. As for `CC1=NN(c2ccc(OC(F)F)cc2)C(=O)C1C(=O)Nc1cccc(C(C)(F)F)c1` (stereo unspecified), the figure is 2.66 nM; as for `COc1ccc(N2N=C(C)C(C(=O)Nc3cccc(-c4ccco4)c3)C2=O)cc1` (stereo unspecified), 3.2 nM.

Consider `CC1=NN(c2ccc(OC(F)F)c(-c3cccnc3)c2)C(=O)C1C(=O)Nc1cccc(C(C)(F)F)c1` (stereo unspecified), for which the IC50 was 0.33 nM. In the case of `CCC(F)(F)c1cccc(NC(=O)C2C(=O)N(c3ccc(OC)cc3)N=C2C)c1` (stereo unspecified) it was 0.463 nM.

As to `COc1ccc(N2N=C(C)C(C(=O)Nc3cccc(C(C)(F)F)c3)C2=O)cc1OC` (stereo unspecified), the concentration for half-maximal inhibition (IC50) is 1 nM. As for `COc1ccc(N2N=C(C)C(C(=O)Nc3cccc(C(C)(F)F)c3)C2=O)cc1` (stereo unspecified), the figure is 4.5 nM; as for `COc1ccc(N2N=C(C)C(C(=O)Nc3cccc(-c4ccco4)c3)C2=O)cn1` (stereo unspecified), 3.9 nM; as for `COc1ccc(N2N=C(C)C(C(=O)Nc3cccc(C(C)(F)F)c3)C2=O)cc1-c1ncco1` (stereo unspecified), 1.1 nM.

For the compound `COC(=O)c1cccc(N2N=C(C)C(C(=O)Nc3cccc(-c4ccco4)c3)C2=O)c1` (stereo unspecified), the IC50 amounted to 2.1 nM.
